Source: ChEMBL document CHEMBL4177710, “Bisindolylmethane thiosemicarbazides as potential inhibitors of urease: Synthesis and molecular modeling studies” (Bioorg Med Chem, 2018)

Target: Urease (Canavalia ensiformis, UniProt P07374)
Assay: Inhibition of jack bean urease assessed as reduction in ammonia production using urea as substrate after 15 mins by indophenol method

Urease, sequence (P07374 whole entry): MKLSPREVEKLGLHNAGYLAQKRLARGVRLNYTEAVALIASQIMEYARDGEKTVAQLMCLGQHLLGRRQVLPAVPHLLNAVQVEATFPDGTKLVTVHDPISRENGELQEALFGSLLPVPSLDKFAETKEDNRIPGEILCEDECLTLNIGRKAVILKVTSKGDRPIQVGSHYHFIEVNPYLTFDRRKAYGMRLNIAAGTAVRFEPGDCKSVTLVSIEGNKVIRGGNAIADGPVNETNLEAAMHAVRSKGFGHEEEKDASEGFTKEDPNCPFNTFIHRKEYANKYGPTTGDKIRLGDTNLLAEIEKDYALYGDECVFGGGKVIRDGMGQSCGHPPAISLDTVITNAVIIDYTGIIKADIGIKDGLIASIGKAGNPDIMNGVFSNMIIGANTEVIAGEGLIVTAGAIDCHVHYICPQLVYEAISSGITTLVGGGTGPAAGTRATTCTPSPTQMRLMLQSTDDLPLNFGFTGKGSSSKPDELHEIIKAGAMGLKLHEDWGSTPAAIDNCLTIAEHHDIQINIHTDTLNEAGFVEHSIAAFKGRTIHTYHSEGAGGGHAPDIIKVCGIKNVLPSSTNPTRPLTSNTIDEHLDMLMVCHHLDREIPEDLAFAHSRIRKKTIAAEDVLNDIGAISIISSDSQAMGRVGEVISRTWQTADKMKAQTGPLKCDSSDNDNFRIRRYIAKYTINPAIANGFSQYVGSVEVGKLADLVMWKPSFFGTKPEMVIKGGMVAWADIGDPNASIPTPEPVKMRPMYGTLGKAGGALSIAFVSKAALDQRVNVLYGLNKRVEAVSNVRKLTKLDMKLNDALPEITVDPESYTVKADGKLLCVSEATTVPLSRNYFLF

| Structure (SMILES) | IC50 [nM] |
| --- | --- |
| Cc1ccc(C(c2c[nH]c3ccc(C(=O)NNC(=S)Nc4cccc(F)c4)cc23)c2c[nH]c3ccc(C(=O)NNC(=S)Nc4cccc(F)c4)cc23)cc1 | 980 |
| Cc1ccc(C(c2c[nH]c3ccc(C(=O)NNC(=S)Nc4ccc(Br)cc4)cc23)c2c[nH]c3ccc(C(=O)NNC(=S)Nc4ccc(Br)cc4)cc23)cc1 | 1300 |
| Cc1ccc(C(c2c[nH]c3ccc(C(=O)NNC(=S)NC45CC6CC(CC(C6)C4)C5)cc23)c2c[nH]c3ccc(C(=O)NNC(=S)NC45CC6CC(CC(C6)C4)C5)cc23)cc1 (stereo not drawn) | 18500 |
| Cc1ccc(C(c2c[nH]c3ccc(C(=O)NNC(=S)Nc4ccc(C(F)(F)F)cc4)cc23)c2c[nH]c3ccc(C(=O)NNC(=S)Nc4ccc(C(F)(F)F)cc4)cc23)cc1 | 500 |
| Cc1ccc(C(c2c[nH]c3ccc(C(=O)NNC(=S)Nc4ccccc4Cl)cc23)c2c[nH]c3ccc(C(=O)NNC(=S)Nc4ccccc4Cl)cc23)cc1 | 1200 |
| Cc1ccc(C(c2c[nH]c3ccc(C(=O)NNC(=S)Nc4ccc(Cl)cc4)cc23)c2c[nH]c3ccc(C(=O)NNC(=S)Nc4ccc(Cl)cc4)cc23)cc1 | 2750 |
| Cc1ccc(C(c2c[nH]c3ccc(C(=O)NNC(=S)Nc4ccccc4C)cc23)c2c[nH]c3ccc(C(=O)NNC(=S)Nc4ccccc4C)cc23)cc1 | 3300 |
| COc1ccccc1NC(=S)NNC(=O)c1ccc2[nH]cc(C(c3ccc(C)cc3)c3c[nH]c4ccc(C(=O)NNC(=S)Nc5ccccc5OC)cc34)c2c1 | 8400 |
| Cc1ccc(NC(=S)NNC(=O)c2ccc3[nH]cc(C(c4ccc(C)cc4)c4c[nH]c5ccc(C(=O)NNC(=S)Nc6ccc(C)cc6)cc45)c3c2)cc1 | 4200 |
| Cc1ccc(C(c2c[nH]c3ccc(C(=O)NNC(=S)Nc4cccc(Br)c4)cc23)c2c[nH]c3ccc(C(=O)NNC(=S)Nc4cccc(Br)c4)cc23)cc1 | 1800 |
| Cc1ccc(C(c2c[nH]c3ccc(C(=O)NNC(=S)Nc4ccc(Cl)c(Cl)c4)cc23)c2c[nH]c3ccc(C(=O)NNC(=S)Nc4ccc(Cl)c(Cl)c4)cc23)cc1 | 140 |
| Cc1ccc(C(c2c[nH]c3ccc(C(=O)NNC(=S)Nc4cccc([N+](=O)[O-])c4)cc23)c2c[nH]c3ccc(C(=O)NNC(=S)Nc4cccc([N+](=O)[O-])c4)cc23)cc1 | 7600 |
| Cc1ccc(C(c2c[nH]c3ccc(C(=O)NNC(=S)Nc4ccc([N+](=O)[O-])cc4)cc23)c2c[nH]c3ccc(C(=O)NNC(=S)Nc4ccc([N+](=O)[O-])cc4)cc23)cc1 | 9500 |
| Cc1ccc(C(c2c[nH]c3ccc(C(=O)NNC(=S)Nc4cccc(C)c4)cc23)c2c[nH]c3ccc(C(=O)NNC(=S)Nc4cccc(C)c4)cc23)cc1 | 5100 |
| Cc1ccc(C(c2c[nH]c3ccc(C(=O)NNC(=S)Nc4ccccc4Br)cc23)c2c[nH]c3ccc(C(=O)NNC(=S)Nc4ccccc4Br)cc23)cc1 | 2500 |
| Cc1ccc(C(c2c[nH]c3ccc(C(=O)NNC(=S)Nc4ccc(F)cc4)cc23)c2c[nH]c3ccc(C(=O)NNC(=S)Nc4ccc(F)cc4)cc23)cc1 | 1100 |
| COc1cccc(NC(=S)NNC(=O)c2ccc3[nH]cc(C(c4ccc(C)cc4)c4c[nH]c5ccc(C(=O)NNC(=S)Nc6cccc(OC)c6)cc45)c3c2)c1 | 12100 |
| Cc1ccc(C(c2c[nH]c3ccc(C(=O)NNC(=S)Nc4ccccc4F)cc23)c2c[nH]c3ccc(C(=O)NNC(=S)Nc4ccccc4F)cc23)cc1 | 800 |
